Reference: patent US5972939A, “Cyclopentene derivatives useful as antagonists of the motilin receptor” (Ortho-McNeil Pharmaceutical, Inc., priority 1998, dated 1999)

target: T1, motilin receptors located on the colon of mature rabbits (Oryctolagus cuniculus, UniProt G1T803); assay: competition with radiolabeled (125I) porcine motilin for the motilin receptors of rabbit colon; type: binding; details: @ 0.04 μM
T1 construct: The colon from mature New Zealand rabbits was removed, dissected free from the mucosa and serosa layers, and diced into small pieces; from tissue; host or cells: colon smooth muscle of mature New Zealand rabbits, crude membrane homogenate
T1 sequence (G1T803 1-400): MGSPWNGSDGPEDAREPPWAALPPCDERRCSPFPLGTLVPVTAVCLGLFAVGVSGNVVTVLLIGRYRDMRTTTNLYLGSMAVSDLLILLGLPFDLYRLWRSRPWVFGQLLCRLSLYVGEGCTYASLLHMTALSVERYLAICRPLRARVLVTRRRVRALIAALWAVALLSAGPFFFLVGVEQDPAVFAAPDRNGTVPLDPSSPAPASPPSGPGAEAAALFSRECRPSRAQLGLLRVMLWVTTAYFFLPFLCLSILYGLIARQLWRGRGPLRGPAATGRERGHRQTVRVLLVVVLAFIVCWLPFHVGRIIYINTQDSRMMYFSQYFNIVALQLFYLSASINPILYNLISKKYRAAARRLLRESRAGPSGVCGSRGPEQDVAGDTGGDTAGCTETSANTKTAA
Experimental: The compounds of the invention were tested for their ability to compete with radiolabeled motilin (porcine) for the motilin receptors located on the colon of mature rabbits. The colon from mature New Zealand rabbits was removed, dissected free from the mucosa and serosa layers, and diced into small pieces. […] The homogenate was centrifuged at 1000×g for 15 min. and the supernatant discarded. The pellet was washed twice before being suspended in homogenizing buffer. This crude homogenate is then passed first through a 19 gauge needle then a 23 gauge needle to further suspend the material and stored as -80° C. […] After 30 min, at 30° C., the material was cooled on ice and centrifuged at 13,000×g for 1 minute. The pellet was washed with 1 mL 0.9% saline and centrifuged at 13,000×g for 15 seconds. The pellet was washed again with cold saline and the supernatant was removed. The pellet was counted in the gamma counter to determine the percentage of […] motilin and thereby the percent inhibition of the test compound. IC50s were determined for some compounds by standard techniques.

| inhibition at 0.04 µM | SMILES |
| --- | --- |
| 44% | O=C(c1cccc(F)c1)N(CC1=CC(Cc2ccc(F)cc2)(NC(=O)C(Cl)(Cl)Cl)CC1)c1cccc(OCCN2CCOCC2)c1 (stereo not drawn) [Compound 126] |
| 43% | O=C(c1ccc(F)cc1)N(CC1=CC(Cc2ccc(F)cc2)(NC(=O)C(Cl)(Cl)Cl)CC1)c1cccc(OCCN2CCOCC2)c1 (stereo not drawn) [Compound 125] |

same assay, conditions: @ 0.1 μM

| inhibition at 0.1 µM | SMILES |
| --- | --- |
| 61% | O=C(c1ccc(Cl)cc1)N(CC1=CC(Cc2ccccc2)(NC(=O)C(Cl)(Cl)Cl)CC1)c1cccc(OCCN2CCOCC2)c1 (stereo not drawn) [Compound 102] |
| 52% | O=C(c1cccc(C(F)(F)F)c1)N(CC1=CC(Cc2ccccc2)(NC(=O)C(Cl)(Cl)Cl)CC1)c1cccc(OCCCN2CCOCC2)c1 (stereo not drawn) [Compound 103] |
| 54% | O=C(c1cccc(Br)c1)N(CC1=CC(Cc2ccccc2)(NC(=O)C(Cl)(Cl)Cl)CC1)c1cccc(OCCN2CCOCC2)c1 (stereo not drawn) [Compound 101] |
| 43% | O=C(c1ccc(F)cc1)N(CC1=CC(NC(=O)C(Cl)(Cl)Cl)(c2ccccc2)CC1)c1cccc(OCCN2CCOCC2)c1 (stereo not drawn) [Compound 128] |
| 70% | O=C(c1ccc(Br)cc1)N(CC1=CC(Cc2cccc(Cl)c2)(NC(=O)C(Cl)(Cl)Cl)CC1)c1cccc(OCCN2CCOCC2)c1 (stereo not drawn) [Compound 129] |
| 59% | O=C(c1ccc(I)cc1)N(CC1=CC(Cc2ccccc2)(NC(=O)C(Cl)(Cl)Cl)CC1)c1cccc(OCCN2CCOCC2)c1 (stereo not drawn) [Compound 105] |
| 29% | O=C(c1ccc(C(F)(F)F)cc1)N(CC1=CC(Cc2ccccc2)(NC(=O)C(Cl)(Cl)Cl)CC1)c1cccc(OCCN2CCOCC2)c1 (stereo not drawn) [Compound 104] |
| 45% | O=C(NC1(Cc2ccccc2)C=C(CN(C(=S)Nc2ccccc2)c2cccc(OCCN3CCOCC3)c2)CC1)C(Cl)(Cl)Cl (stereo not drawn) [Compound 11] |

| SMILES | inhibition at 0.1 µM |
| --- | --- |
| O=C(c1ccc([N+](=O)[O-])cc1)N(CC1=CC(Cc2ccccc2)(NC(=O)C(Cl)(Cl)Cl)CC1)c1cccc(OCCN2CCOCC2)c1 (stereo not drawn) [Compound 116] | 69% |
| O=C(c1cc(F)cc(F)c1)N(CC1=CC(Cc2ccccc2)(NC(=O)C(Cl)(Cl)Cl)CC1)c1cccc(OCCN2CCOCC2)c1 (stereo not drawn) [Compound 106] | 78% |

same assay, conditions: @ 0.5 μM

| inhibition at 0.5 µM | SMILES |
| --- | --- |
| 65% | COc1cccc(C(=O)N(CC2=CC(Cc3ccccc3)(NC(=O)C(Cl)(Cl)Cl)CC2)c2cccc(OCCN3CCOCC3)c2)c1 (stereo not drawn) [Compound 90] |

same assay, conditions: @ 1.0 μM

| inhibition at 1 µM | SMILES |
| --- | --- |
| 50% | O=C(c1ccc(Br)cc1)N(CC1=CC(Cc2ccccc2)(NC(=O)C(Cl)(Cl)Cl)CC1)c1cccc(OCC[N+]2([O-])CCOCC2)c1 (stereo not drawn) [Compound 137] |
| 77% | O=C(c1ccc2c(c1)OCO2)N(CC1=CC(Cc2ccccc2)(NC(=O)C(Cl)(Cl)Cl)CC1)c1cccc(OCCN2CCOCC2)c1 (stereo not drawn) [Compound 122] |
| 51% | O=C(c1ccncc1)N(CC1=CC(Cc2ccccc2)(NC(=O)C(Cl)(Cl)Cl)CC1)c1cccc(OCCN2CCOCC2)c1 (stereo not drawn) [Compound 111] |
| 51% | CC(C)C1(NC(=O)C(Cl)(Cl)Cl)C=C(CN(C(=O)Nc2ccccc2)c2cccc(OCCN3CCOCC3)c2)CC1 (stereo not drawn) [Compound 123] |
| 69% | O=C(Nc1ccccc1)N(CC1=CC(Cc2ccccc2)(NC(=O)C(F)(F)F)CC1)c1cccc(OCCN2CCOCC2)c1 (stereo not drawn) [Compound 134] |
| 84% | O=C(c1cccs1)N(CC1=CC(Cc2ccccc2)(NC(=O)C(Cl)(Cl)Cl)CC1)c1cccc(OCCN2CCOCC2)c1 (stereo not drawn) [Compound 108] |
| 59% | O=C(c1cccc(F)c1)N(CC1=CC(Cc2ccccc2)(NC(=O)C(Cl)(Cl)Cl)CC1)c1cc(OCCN2CCOCC2)ccc1Cl (stereo not drawn) [Compound 113] |
| 59% | O=C(Nc1ccccc1)N(CC1=CC(Cc2ccccc2)(NC(=O)C(Cl)(Cl)Cl)CC1)c1cccc(CCCN2CCOCC2)c1 (stereo not drawn) [Compound 19] |

| SMILES | inhibition at 1 µM |
| --- | --- |
| O=C(c1ccc(F)cc1)N(CC1=CC(Cc2ccccc2)(NC(=O)C(Cl)(Cl)Cl)CC1)c1cccc(CCCN2CCOCC2)c1 (stereo not drawn) [Compound 98] | 17% |
| CC(C)(C)c1ccc(C(=O)N(CC2=CC(Cc3ccccc3)(NC(=O)C(Cl)(Cl)Cl)CC2)c2cccc(OCCN3CCOCC3)c2)cc1 (stereo not drawn) [Compound 110] | 19% |
| O=C(C(c1ccccc1)c1ccccc1)N(CC1=CC(Cc2ccccc2)(NC(=O)C(Cl)(Cl)Cl)CC1)c1cccc(OCCN2CCOCC2)c1 (stereo not drawn) [Compound 117] | 42% |
| O=C(c1ccc(-c2ccccc2)cc1)N(CC1=CC(Cc2ccccc2)(NC(=O)C(Cl)(Cl)Cl)CC1)c1cccc(OCCN2CCOCC2)c1 (stereo not drawn) [Compound 1407] | 58% |
| O=C(NC1CCCCC1)N(CC1=CC(Cc2ccccc2)(NC(=O)C(Cl)(Cl)Cl)CC1)c1cccc(OCCN2CCOCC2)c1 (stereo not drawn) [Compound 119] | 56% |
| O=C(Oc1ccccc1)N(CC1=CC(Cc2ccccc2)(NC(=O)C(Cl)(Cl)Cl)CC1)c1cccc(OCCN2CCOCC2)c1 (stereo not drawn) [Compound 118] | 51% |
| O=C(Nc1ccccc1)N(CC1=CC(Cc2ccccc2)(NC(=O)C(Cl)(Cl)Cl)CC1)c1cccc(OCC[N+]2([O-])CCOCC2)c1 (stereo not drawn) [Compound 136] | 57% |

same assay, conditions: @ 2.0 μM

| inhibition at 2 µM | SMILES |
| --- | --- |
| 9% | O=C(Oc1cccc(CCN(CCN2CCOCC2)CC2=CC(Cc3ccccc3)(NC(=O)C(Cl)(Cl)Cl)CC2)c1)c1ccccc1 (stereo not drawn) [Compound 85] |
| 22% | COc1ccc(CCN(CCN2CCOCC2)CC2=CC(Cc3ccccc3)(NC(=O)C(Cl)(Cl)Cl)CC2)cc1OC(=O)c1ccccc1 (stereo not drawn) [Compound 95] |

same assay, conditions: @ 10 μM

| inhibition at 10 µM | SMILES |
| --- | --- |
| 59% | COc1ccc(C(=O)N(CC2=CC(Cc3ccccc3)(NC(=O)C(Cl)(Cl)Cl)CC2)c2cccc(SCCN3CCOCC3)c2)cc1 (stereo not drawn) [Compound 84] |
| 95% | CCN(CC)CCN(CCc1cccc(OCCN2CCOCC2)c1)CC1=CC(Cc2ccccc2)(NC(=O)C(Cl)(Cl)Cl)CC1 (stereo not drawn) [Compound 92] |
| 41% | Nc1cccc(NCC2=CC(Cc3ccccc3)(NC(=O)C(Cl)(Cl)Cl)CC2)c1 (stereo not drawn) [Compound 75] |
| 94% | O=C(NC1(Cc2ccccc2)C=C(CN(Cc2ccccc2)Cc2cccc(OCCN3CCOCC3)c2)CC1)C(Cl)(Cl)Cl (stereo not drawn) [Compound 88] |
| 84% | CCN(CC)CCN(CCc1ccc(O)cc1)CC1=CC(Cc2ccccc2)(NC(=O)C(Cl)(Cl)Cl)CC1 (stereo not drawn) [Compound 76] |
| 80% | CCN(CC)CCN(CC1=CC(Cc2ccccc2)(NC(=O)C(Cl)(Cl)Cl)CC1)c1ccccc1OCCN1CCOCC1 (stereo not drawn) [Compound 70] |
| 27% | COc1ccc(N(CCN2CCOCC2)CC2=CC(Cc3ccccc3)(NC(=O)C(Cl)(Cl)Cl)CC2)cc1OCCN1CCOCC1 (stereo not drawn) [Compound 40] |
| 51% | CCOC(=O)COc1cccc(N(CC2=CC(Cc3ccccc3)(NC(=O)C(Cl)(Cl)Cl)CC2)C(=O)c2ccccc2)c1 (stereo not drawn) [Compound 46] |
| 81% | CCN(CC)CCN(CC1=CC(Cc2ccccc2)(NC(=O)C(Cl)(Cl)Cl)CC1)c1ccc(O)cc1 (stereo not drawn) [Compound 74] |
| 100% | CCN(CC)CCOc1cccc(CN(CC2=CC(Cc3ccccc3)(NC(=O)C(Cl)(Cl)Cl)CC2)C(=O)c2ccccc2)c1 (stereo not drawn) [Compound 83] |
| 48% | COc1ccc(NCC2=CC(Cc3ccccc3)(NC(=O)C(Cl)(Cl)Cl)CC2)cc1OCCN1CCOCC1 (stereo not drawn) [Compound 94] |
| 37% | O=C(NC1(Cc2ccccc2)C=C(CNc2cccc(OCCN3CCOCC3)c2)CC1)C(Cl)(Cl)Cl (stereo not drawn) [Compound 6] |

| SMILES | inhibition at 10 µM |
| --- | --- |
| O=C(c1ccc(F)cc1)N(CC1=CC(Cc2ccccc2)(NC(=O)C(Cl)(Cl)Cl)CC1)c1cccc(SCCN2CCOCC2)c1 (stereo not drawn) [Compound 80] | 79% |
| O=C(NC1(Cc2ccccc2)C=C(CNCCc2cccc(SCCN3CCOCC3)c2)CC1)C(Cl)(Cl)Cl (stereo not drawn) [Compound 81] | 81% |
| O=C(NC1(Cc2ccccc2)C=C(CNc2cccc(OCCN3CCOCC3)c2)CC1)C(F)(F)F (stereo not drawn) [Compound 131] | 25% |
| O=C(Nc1ccccc1)N(CC1=CC(Cc2ccccc2)(NC(=O)C(Cl)(Cl)Cl)CC1)c1cccc(SCCN2CCOCC2)c1 (stereo not drawn) [Compound 22, 3-Benzyl-3-trichloroacetylamino-1-(N-phenylaminocarbonyl)-N-[(3-(2-morpholinoethyl)phenyl)thio]methylcyclopentene] | 83% |
| O=C(c1ccccc1)N(CC1=CC(Cc2ccccc2)(NC(=O)C(Cl)(Cl)Cl)CC1)c1cccc(SCCN2CCOCC2)c1 (stereo not drawn) [Compound 82] | 80% |
| O=C(c1ccccc1)N(CCc1cccc(OCCN2CCOCC2)c1)CC1=CC(Cc2ccccc2)(NC(=O)C(Cl)(Cl)Cl)CC1 (stereo not drawn) [Compound 41] | 82% |

same assay, conditions: @ 100 μM

| inhibition at 100 µM | SMILES |
| --- | --- |
| 52% | O=C(c1ccc(F)c(F)c1)N(CC1=CC(Cc2ccccc2)(NC(=O)C(Cl)(Cl)Cl)CC1)c1cc(OCCN2CCOCC2)ccc1Cl (stereo not drawn) [Compound 114] |

same assay, conditions: rabbit colon, 125I motilin; read-out: IC50

| IC50 | SMILES |
| --- | --- |
| 10 nM | O=C(Nc1ccc(F)cc1)N(CC1=CC(Cc2cccc(Cl)c2)(NC(=O)C(Cl)(Cl)Cl)CC1)c1cccc(OCCN2CCOCC2)c1 (stereo not drawn) [Compound 120] |
| 260 nM | O=C(c1ccc(Cl)c(Cl)c1)N(CC1=CC(Cc2ccccc2)(NC(=O)C(Cl)(Cl)Cl)CC1)c1cccc(OCCN2CCOCC2)c1 (stereo not drawn) [Compound 97] |
| 30 nM | O=C(c1ccc(F)cc1)N(CC1=CC(Cc2cccc(Cl)c2)(NC(=O)C(Cl)(Cl)Cl)CC1)c1cccc(OCCN2CCOCC2)c1 (stereo not drawn) [Compound 121] |
| 98 nM | N#Cc1ccc(C(=O)N(CC2=CC(Cc3ccccc3)(NC(=O)C(Cl)(Cl)Cl)CC2)c2cccc(OCCN3CCOCC3)c2)cc1 (stereo not drawn) [Compound 109] |

same assay, conditions: rabbit colon, 125I motilin; read-out: IC50 (unit inferred)

| IC50 | SMILES |
| --- | --- |
| 1030 nM | CC(=O)N(CC1=CC(Cc2ccccc2)(NC(=O)C(Cl)(Cl)Cl)CC1)c1cccc(OCCN2CCOCC2)c1 (stereo not drawn) [Compound 78] |
